One assay addresses CXCR4 (Homo sapiens, UniProt P61073). The assay is described as follows: Fluorescent binding assay on whole living cells, CXCL12-TR competition on HEK293 EGFP-hCXCR4. The arrangement: expressed in transfected cells. Here is the method:
FIG. 17. CXCR4 antagonistic activities of ALB derivatives. […] CXCR4 or CCR5 expressing HEK293 cells were treated with CXCR4 agonist CXCL12 (10 nM) or CCR5 agonist CCL5 (20 nM), respectively, in the absence (no ALB) or presence of indicated ALB derivatives (50 μM). Calcium responses were recorded as described. Data shown are mean values±standard deviation derived from duplicates relative to peak calcium responses after treatment with agonists only (100%). […] CXCR4 expressing HEK293 cells were treated with Texas Red labeled CXCL12 (CXCL12-Tr) in the presence or absence of ALB peptides. Real-time fluorescence monitoring of ligand-receptor interactions was carried out as described.

The next assay concerns X4 tropic HIV-1 NL4-3. Particulars: read-out: IC50 ± SEM; TZM-bl cells, X4 tropic HIV-1 NL4-3, two days post infection, synthetic peptides. Here is the method:
HIV inhibition test were performed by seeding 4000 P4-R5 MAGI cells (P. Charneau et al., J. Mol. Biol. 241: 651, 1994) in 100 μl of DMEM (10% FCS, 100 U/ml penicillin G, and 100 μg/ml streptomycin sulfate). P4-R5 cells are stably transfected with an LTR-lacZ cassette and upon successful infection by HIV-1 will express—galactosidase in a Tat-dependent manner, which can be detected in a chemiluminescence test. On the following day, aliquots of the fractions were added. Therefor the lyophilized fractions were resuspended in 80 μl of DMEM, and 25 μl each thereof was pipetted to P4-R5 cells, incubated at 37° C. for 1 hour and subsequently infected with HIV-1 NL4—3 (1 ng of p24 antigen). Virus stocks were obtained by transient infection of 293T cells with proviral DNA by the calcium phosphate method (CalPhos™ Mammalian Transfection Kit, Clontech). Virus stocks were harvested 48 hours post transfection, filtrated and used for infection. Three days post infection, β-galactosidase activity in infected P4-R5 cells was detected using GalScreen assay (TROPIX) as recommended by the manufacturer. Briefly, supernatant was removed, 40 μl of a 1:1 dilution of PBS/GalScreen+substrate was added, followed by incubation at room temperature for 30 min. Then 30 μl of the lysates were transferred into 96 well lumiplates. Subsequently, the lumines-cence was detected as relative light units per second in a luminometer (Berthold, ORION). From all measurements, the mean β-galactosidase background activity of non-infected control cells was subtracted. % infection values for each infection were calculated relative to no peptide containing controls (100%). The enzyme activities in measurements without ALB408-423 were set at 100%, and all other values were based thereon. The final purification (7th step) was examined under exactly the same conditions in TZM-bl cells (X. Wei et al., Antimicrob. Agents Chemother. 46: 1896, 2002).
1.6 mg of fraction 31 from the 7th step in Example 1 was dissolved in 160 μl of DMEM. Subsequently, 10 μl of serial dilutions of fraction 31 containing ALB408-423 were added to 60 μl of TZM-bl cells (60 μl) and infected with 1 ng of p24 antigen HIV-1 NL4—3 in a total volume of 100 μl. Three days later, infection rates were determined in a GalScreen assay (see Example 1).
5000 TZM-bl cells were seeded in 100 μl of DMEM (10% FCS, 100 U/ml of penicillin G and 100 μg/ml of streptomycin sulfate). ALB408-423 was dissolved in PBS (10 mg/ml). One day later, 20 μl serial dilutions of ALB408-423 in PBS were added to cells and cells were subsequently infected with 0.5 ng of p24 antigen HIV-1 in a total volume of 200 μl. HIV-1 molecular clones differing in coreceptor tropism were used and generated as described (Papkalla et al., J. Virol. 76: 8455-9, 2002).
Table 1. Antiviral activity of various ALB fragments against X4 tropic HIV-1 NL4-3 infection. TZM-bl cells containing serial dilutions of synthetic peptides were infected with HIV-1 NL4-3 and infection rates were determined and calculated as described in example 1 and 2 at two days post infection. IC50 values were determined using the GraphPad Prism software package.
Various ALB408-423 derivatives containing N or C terminal deletions or amino acid substitutions (Table 1) were chemically synthesized and lyophilized peptides were dissolved in PBS. The antiviral activity was analyzed in TZM-bl cells using X4 tropic HIV-1 NL4-3 as described (example 4).

A word on the pKd: it is the negative decadic logarithm of the Kd, by convention in mol/L. A low value points to a large Kd. The term pIC50 denotes the negative decadic logarithm of the IC50, by convention in mol/L.

pIC50, pKd: −log10 of the molar value. Ends that are not written are not given here.

Chain of CXCR4 (P61073 whole entry): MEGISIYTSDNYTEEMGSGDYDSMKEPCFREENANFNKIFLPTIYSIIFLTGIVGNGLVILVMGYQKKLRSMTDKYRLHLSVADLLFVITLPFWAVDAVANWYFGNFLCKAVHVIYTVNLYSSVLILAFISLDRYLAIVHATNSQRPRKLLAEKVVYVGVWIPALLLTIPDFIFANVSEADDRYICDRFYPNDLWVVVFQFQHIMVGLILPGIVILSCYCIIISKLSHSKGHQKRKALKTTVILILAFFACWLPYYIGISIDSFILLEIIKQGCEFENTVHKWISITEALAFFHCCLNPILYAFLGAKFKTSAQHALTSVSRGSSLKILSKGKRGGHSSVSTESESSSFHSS

The substance LVRYTK [ALB408-413, LVRYTK] had a negative logarithm of the Kd (pKd) on CXCR4 of less than 3.70. Further, the pIC50 in the assay on X4 tropic HIV-1 NL4-3 is less than 4.30.

(Values after US9045563B2, “CXC chemokine receptor 4 (CXCR4) antagonistic polypeptide” (priority 2007, dated 2015).)
